The values that follow come from PMC8131319, “The molecular basis of spectral tuning in blue- and red-shifted flavin-binding fluorescent proteins” (The Journal of Biological Chemistry, 2021).

Experiment in all cases: X-ray crystallography
Holding throughout (type): binding

Test [1] has as its target T1, CagFbFP (Chloroflexus aggregans, UniProt B8GAY9, I52T/C85A).
T1 construct: gene Cagg_3753; LOV domain from residue 47 (about 47-153), C-terminal His-tag, expressed in E. coli from pET11, homodimer
To be noted: pH 5.5; noncovalent; structure virtually identical to parental CagFbFP.

The target in test [2] is T2, iLOV (Arabidopsis thaliana, UniProt P93025, S394T/S409G/C426A/I452T/F470L/M475V/Q489K).
T2 construct: gene PHOT2; improved LOV2 domain (about residues 387-496 of phot2), expressed in E. coli from pET28a, His-tag (IMAC), monomer about 10 kDa
T2 sequence (P93025 387-496 S394T/S409G/C426A/I452T/F470L/M475V/Q489K limits assumed): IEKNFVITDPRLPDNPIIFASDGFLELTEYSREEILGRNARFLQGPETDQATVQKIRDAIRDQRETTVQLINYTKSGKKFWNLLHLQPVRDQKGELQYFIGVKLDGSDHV
To be noted: 1.45 Å; space group P4_32_12; pH 4.6; noncovalent; acetate ion near FMN-N5.

In test [3] the target is T3, CagFbFP (Chloroflexus aggregans, UniProt B8GAY9, C85A/Q148K).
T3 construct: gene Cagg_3753; LOV domain from residue 47 (about 47-153), C-terminal His-tag, expressed in E. coli from pET11, homodimer
T3 sequence (B8GAY9 entry or part of it C85A/Q148K): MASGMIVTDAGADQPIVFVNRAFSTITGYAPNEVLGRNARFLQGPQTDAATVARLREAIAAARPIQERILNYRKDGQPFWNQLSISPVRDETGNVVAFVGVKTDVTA
To be noted: 1.36 Å; pH 6.5; noncovalent; morpholine fragment near FMN; second structure 6YX6.

The target in test [4] is T4, CagFbFP (Chloroflexus aggregans, UniProt B8GAY9, I52T/C85A/Q148K).
T4 construct: gene Cagg_3753; LOV domain from residue 47 (about 47-153), C-terminal His-tag, expressed in E. coli from pET11, homodimer
T4 sequence (B8GAY9 entry or part of it I52T/C85A/Q148K): as the sequence (B8GAY9 entry or part of it C85A/Q148K) above, with I6T counted along it
The following applies: 1.8 Å; space group P2_12_12; pH 5.0; noncovalent.

T1 sequence (B8GAY9 entry or part of it I52T/C85A): as the sequence (B8GAY9 entry or part of it C85A/Q148K) above, with I6T, K102Q counted along it

In the case of `Cc1cc2nc3c(=O)[nH]c(=O)nc-3n(C[C@H](O)[C@H](O)[C@H](O)COP(=O)(O)O)c2cc1C` [FMN], the X-ray crystallography entry in test [1] was “X-ray structure of CagFbFP-I52T”; in test [2] it was “hydrogen bond network to FMN and N468”; in test [3], “side chain of the introduced lysine is facing away from FMN”; in test [4], “structure of CagFbFP–I52T–Q148K with hydrogen bonds between K148, T52, and the FMN”.
